Patent publication US20250257060A1, “OXADIAZOLE COMPOUND, PHARMACEUTICAL COMPOSITION COMPRISING SAME, AND USE THEREOF” (SUZHOU GENHOUSE BIO CO., LTD., priority 2022, published 2025)

Experiments:
[1] = system: acetylation level of α-tubulin in HCT116 cells; assay: Assay on acetylation level of α-tubulin, HCT116 cells; assay type: cell-based; details: Homo sapiens, HCT-116, 6 h
Protocol: A375/HCT116/HCC827 cells at a logarithmic growth phase were taken, digested with a […] (trypsin), centrifuged, counted, and plated in a 96-well plate at an appropriate cell density (30,000 cells/well) at 100 µL/well, and an appropriate amount of PBS was added around the plate for water sealing. The next day, the cells were treated with the compounds at different concentrations (starting at 100 μM, 5-fold dilution, 9 concentration gradients). After 6 h, the medium was pipetted out and the cells were washed twice with 100 μL of PBST. The cells were then immobilized in 4% paraformaldehyde, and the plate was incubated at room temperature for 20 min. The stationary liquid was discarded and the cells were washed with PBST. 150 μL of special blocking buffer (containing 1% Triton-100) was added to each well for blocking at room temperature for 2 h, and the plate was washed with PBS to remove excess blocking buffer. α-tubulin (DM1A) mouse mAb and acetyl-α-tubulin (Lys40) (D20G3) XP rabbit mAb were diluted at a 1:2000 ratio with a blocking buffer containing 0.033% Triton-100. The dilutions were added to the 96-well plate and the plate was incubated overnight at 4° C. Meanwhile, a blank control group was set. The next day, the plate was washed twice with PBST. Secondary anti-mouse IgG (H+L) (DyLight™ 680 conjugate) and anti-rabbit IgG (H+L) (DyLight™ 800 conjugate) were diluted at a 1:2000 ratio with a blocking buffer containing 0.033% Triton-100. The dilutions were added to a 96-well plate and the plate was incubated at room temperature for 2 h. The plate was washed twice with PBST and once with PBS. Fluorescence signals at 700 nm and 800 nm were detected with a Li-COR Odyssey two-color near-infrared laser imager.

[2] = Phase I metabolic stability in human liver microsomes (HLMs); assay type: in vitro ADME, humans; details: HLM; for Remaining rate (NCF = 60 min): buffer instead of NADPH regeneration system; for Remaining rate (T = 60 min): with NADPH; for CLint scaled at 1 µM / half-life at 1 M / microsomal CLint at 1 M: human, liver microsomes, pH 7.4; for microsomal CLint at 1 M: read-out: CLint (mic)
Protocol: (§1) Phase I metabolic stability of the test compounds in liver microsomes of CD-1 mice (MLMs), Sprague-Dawley rats (RLMs), beagle dogs (DLMs), cynomolgus monkeys (CLMs), and humans (HLMs) was evaluated.
(§2) The animal and human liver microsomes used in the test system were purchased from Xenotech, Corning, or other qualified suppliers and stored in a freezer at a temperature below −60° C. prior to use.
(§3) The test samples and control compounds were separately incubated with animal and human liver microsomes at 37±1° C. for a period of incubation time up to 60 min. The samples were removed at the indicated time points, and the reaction was stopped with acetonitrile or other organic solvents containing an internal standard. After centrifugation, the resulting supernatants were assayed by liquid chromatography-tandem mass spectrometry (LC-MS/MS).
(§4) 73.21 g of dipotassium hydrogenphosphate trihydrate and 10.78 g of potassium dihydrogenphosphate were dissolved in 4000 mL of ultrapure water. The solution was adjusted to pH 7.40±0.10 with 10% phosphoric acid or 1 M potassium hydroxide to make a final concentration of 100 mM.
(§5) The test sample powder was prepared into a stock solution at a certain concentration with DMSO or other organic solvents, which was then further diluted with a proper organic solvent.
(§6) Microsomes of each species were diluted into a 2× working solution with a 100 mM potassium phosphate buffer. The final concentration of the microsomes in the reaction system was 0.5 mg/mL.
(§7) An appropriate amount of nicotinamide adenine dinucleotide phosphate (NADP) and isocitric acid (ISO) powder was weighed out, dissolved in a magnesium chloride solution, and shaken and mixed well. An appropriate amount of isocitrate dehydrogenase (IDH) was added, and the mixture was mixed well by gently turning upside down. The final concentrations in the reaction system were: 1 mM NADP, 1 mM magnesium chloride, 6 mM ISO, and 1 unit/mL IDH.
(§8) Incubation was performed in a 96-well plate. Eight incubation plates were prepared and designated T0, T5, T15, T30, T45, T60, Blank60, and NCF60, respectively. The first 6 plates corresponded to reaction time points of 0, 5, 15, 30, 45, and 60 min, respectively. No test sample or control compound was added to the Blank60 plate, and samples were taken after 60 min of incubation. In the NCF60 plate, incubation was performed for 60 min using the potassium phosphate buffer instead of the NADPH regeneration system solution. Three replicates were made for samples in all conditions.
(§9) The microsomes and the test sample or control compound were mixed, and then the incubation plates Blank60, T5, T15, T30, T45, and T60 except for TO and NCF60 were placed in a 37° C. water bath for pre-incubation for about 10 min. In the incubation plate TO, a stop solution was first added, followed by addition of the NADPH regeneration system working solution, and 98 μL of the potassium phosphate buffer was added to each sample well of the incubation plate NCF60 to initiate the reaction. After the pre-incubations of the incubation plates Blank60, T5, T15, T30, T45, and T60 were completed, 98 μL of the NADPH regeneration system working solution was added to each sample well to initiate the reaction. The reaction temperature was 37±1° C., the final volume of the reaction was 200 μL, and the reaction system included 0.5 mg/mL microsomes, […], 1 mM NADP, 6 mM ISO, and 1 unit/mL IDH.
(§10) At 5 min, 15 min, 30 min, 45 min, and 60 min, a cold stop solution containing an internal standard was added to the reaction plate to stop the reaction.
(§11) All the reaction plates after the reaction was stopped were shaken well and centrifuged at 3220×g at 4° C. for 20 min. After the supernatant was diluted according to a certain proportion, LC-MS/MS analysis was performed.
(§12) Sample analysis was performed by the liquid chromatography-tandem mass spectrometry (LC-MS/MS) method without standard curves and quality control samples. […]

[3] = Phase I metabolic stability in mouse liver microsomes (MLMs); assay type: in vitro ADME, CD-1 mice; details: MLM; for CLint scaled at 1 µM / half-life at 1 M / microsomal CLint at 1 M: CD-1, mouse, liver microsomes, pH 7.4; for microsomal CLint at 1 M: read-out: CLint (mic); for Remaining rate (NCF = 60 min): buffer instead of NADPH regeneration system; for Remaining rate (T = 60 min): with NADPH
Protocol: as §1, §2, §3, §4, §5, §6, §7, §8, §9, §10, §11, §12

Structure (SMILES)	EC50 [1]	Remaining rate (NCF = 60 min) [2]	Remaining rate (T = 60 min) [2]	CLint scaled at 1 µM [2]	half-life at 1 M [2]	microsomal CLint at 1 M [2]	CLint scaled at 1 µM [3]	half-life at 1 M [3]	microsomal CLint at 1 M [3]	Remaining rate (NCF = 60 min) [3]	Remaining rate (T = 60 min) [3]
CC(F)(F)C(=O)N[C@@H]1CCCC[C@H]1N1Cc2ccc(-c3nnc(C(F)F)o3)cc2S1(=O)=O [Compound 1]	0.262 µM	83.4%	79.0%	< 8.6 mL/min/kg	> 2.42 h	< 9.6 µL/min/mg	< 38 mL/min/kg	> 2.42 h	< 9.6 µL/min/mg	97.6%	79.8%
O=C(N[C@@H]1CCCC[C@H]1N1Cc2ccc(-c3nnc(C(F)F)o3)cc2S1(=O)=O)C(F)F [Compound 2]	0.14 ± 0.0391 µM	97.3%	86.1%	< 8.6 mL/min/kg	> 2.42 h	< 9.6 µL/min/mg	< 38 mL/min/kg	> 2.42 h	< 9.6 µL/min/mg	99.8%	84.8%
O=C(N[C@H]1[C@H](N2Cc3ccc(-c4nnc(C(F)F)o4)cc3S2(=O)=O)CCCC1(F)F)C(F)F [Compound 61]	0.195 µM	86.25%	85.62%	7.26 mL/min/kg	3.99 h	–	18.6 mL/min/kg	4.9 h	–	83.81%	85.14%
